Experiments:
injured SH-SY5Y cells = assay: Protective effect against tert-butyl hydroperoxide-induced SH-SY5Y neurotoxicity cells (MTT assay); type: cell-based; settings: Homo sapiens; for viability at 3.125 µM / viability at 6.25 µM / viability at 12.5 µM / viability at 25 µM / viability at 50 µM: injured SH-SY5Y cells, read-out: Proliferation Rate (%); for EC50: tert-butyl hydroperoxide-induced SH-SY5Y neurotoxicity, read-out: EC50 for protecting injured SH-SY5Y cells;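 for Proliferation Rate (%): 0% equals CoCl2-injured cells and 100% equals NGF-treated cells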
Protocol: The protective effects of baicalein derivatives in vitro was evaluated against tert-butyl, hydroperoxide-induced, SH-SY5Y neurotoxicity cells using an MTT assay. In addition, their toxicity evaluation was tested on normal H9C2 cells. The resulting proliferation rates (%) at different concentrations, as well as their 50% effective concentrations (EC50) for protecting damaged SH-SY5Y cells of the baicalein amino acid derivatives, are summarized in Table 2.
(§1) The SH-SY5Y ([…]) and H9C2 ([…]) cell lines were obtained from the Chinese Academy of Medical Sciences and Peking Union Medical College. All of the cell lines were grown in dulbecco’s modified eagle medium (DMEM) with 10% (v/v) fetal bovine serum (FBS) and 1% (v/v) penicillin/streptomycin (Thermo Technologies, New York, NY, USA), under a humidified atmosphere containing 5% CO2 at 37 °C. The baicalein derivatives were dissolved in DMSO (Sigma, St. Louis, MO, USA) and added at various concentrations to the cell culture.
(§2) The protective effect of these compounds was evaluated on SH-SY5Y and H9C2 cell lines via the MTT method. The cells growing in the logarithmic phase were cultured in 96-well plates at a density 3 × 10^3 cells/well and incubated for 24 h. Then each well was treated with the required concentrations (50 µM concentrations, 25 µM concentrations, 12.5µM concentrations, 6.25 µM concentrations, and 3.125 µM concentrations) of baicalein derivatives, and incubated 36 h at 37 °C with 5% CO2. After that, the cells were induced by H2O2 (final concentration, […]) for 12 h. Control-differentiated cells were injected with new growth media at equal amounts. Before […] MTT solution (5 mg/mL) was added to each well, the cell culture fluid was discarded, and […] fresh cell culture fluid was added. The plate was incubated for a further 4 h at 37 °C. The cell supernatant medium was removed carefully, without disturbing the attached cells, and formazan crystals were solubilized by adding 150 μL DMSO into each well. The absorbance was measured at 490 nm with a plate reader (BIORAD 550 spectrophotometer, Bio-rad Life Science Development Ltd., Beijing, China). H2O2 was dissolved in DMEM medium. Wells without drugs were used as blanks. The EC50 values were defined as the concentrations that causes the maximum effect of 50%; IC50 values were defined as the concentration of compound which gives 50% growth inhibition, and were calculated using the GraphPad Prism 5. The proliferation rates of damaged SH-SY5Y cells were calculated in the following formula (1): [OD490 (compound) − OD490 (CoCl2)]/[OD490 (NGF) − OD490 (CoCl2)] × 100%(1) The EC50 values were using the equation −pEC50 = log Cmax − log 2 × (ΣP − 0.75 + 0.25Pmax + 0.25Pmin)(2) where Cmax is the maximum concentration, ΣP is the sum of proliferation rates, Pmax is the maximum value of the proliferation rate, and Pmin is the minimum value of the proliferation rate. Cell viability was expressed as a percentage of the control.

H9C2 cells [1] = assay: Toxicity on normal H9C2 cells (MTT assay); type: cell-based; settings: MTT; for viability at 6.25 µM / viability at 12.5 µM / viability at 25 µM / viability at 50 µM: H9C2 cells, read-out: Survival Rate (%); for IC50: normal H9C2 cells
Protocol: To study cytotoxicity on normal cells, the cytotoxicity of compounds against normal H9C2 cells were tested.
as §1, §2
The inhibition rate was calculated in the following equation: % inhibition = 1 − (Sample group OD/Control group OD) × 100%(3)

H9C2 cells [2] = assay: Toxicity on normal H9C2 cells (MTT assay); type: cell-based; settings: read-out: Survival Rate (%)

## O=C(NCCCCC(NC(=O)OCc1ccccc1)C(=O)Oc1cc2oc(-c3ccccc3)cc(=O)c2c(O)c1O)OCc1ccccc1 (stereo not shown) [Compound 12, 5,6-dihydroxy-4-oxo-2-phenyl-4H-chromen-7-yl 2,6-di{[(benzyloxy)carbonyl]amino} hexanoate]
other
  melting point: 144.9 °C
Injured SH-SY5Y cells
  viability at 3.125 µM: 1.1%
  viability at 6.25 µM: 2.35%
  viability at 12.5 µM: 7.83%
  viability at 25 µM: 20.8%
  viability at 50 µM: 7.34%
  EC50: 61.6 µM
H9C2 cells [1]
  viability at 6.25 µM: 216%
  viability at 12.5 µM: 207%
  viability at 25 µM: 200%
  viability at 50 µM: 187%
  IC50: > 100 µM
H9C2 cells [2]
  viability at 100 µM: 184%

## CN(CC(=O)Oc1cc2oc(-c3ccccc3)cc(=O)c2c(O)c1OC(=O)CN(C)C(=O)OC(C)(C)C)C(=O)OC(C)(C)C [Compound 13, 7-[(2-{[(tert-butoxy)carbonyl](methyl)amino}acetyl)oxy]-5-hydroxy-4-oxo-2-phenyl-4H-chromen-6-yl 2-{[(tert-butoxy)carbonyl](methyl)amino}acetate]
other
  melting point: 205.1 °C
Injured SH-SY5Y cells
  viability at 3.125 µM: 40.1%
  viability at 6.25 µM: 92.1%
  viability at 12.5 µM: 91.5%
  viability at 25 µM: 73%
  viability at 50 µM: 65.9%
  EC50: 5.42 µM
H9C2 cells [1]
  viability at 6.25 µM: 215%
  viability at 12.5 µM: 166%
  viability at 25 µM: 152%
  viability at 50 µM: 132%
  IC50: > 100 µM
H9C2 cells [2]
  viability at 100 µM: 123%

## CC(NC(=O)OC(C)(C)C)C(=O)Oc1c(O)cc2oc(-c3ccccc3)cc(=O)c2c1O (stereo not shown) [Compound 14, 5,7-dihydroxy-4-oxo-2-phenyl-4H-chromen-6-yl 2-{[(tert-butoxy)carbonyl]amino} propanoate]
other
  melting point: 196.7 °C
Injured SH-SY5Y cells
  viability at 3.125 µM: 0.35%
  viability at 6.25 µM: 3.34%
  viability at 12.5 µM: 7.09%
  viability at 25 µM: 4.09%
  viability at 50 µM: 0.1%
  EC50: 74.9 µM
H9C2 cells [1]
  viability at 6.25 µM: 185%
  viability at 12.5 µM: 166%
  viability at 25 µM: 137%
  viability at 50 µM: 129%
  IC50: > 100 µM
H9C2 cells [2]
  viability at 100 µM: 97.1%

## CC(C)CC(NC(=O)OC(C)(C)C)C(=O)Oc1cc2oc(-c3ccccc3)cc(=O)c2c(O)c1O (stereo not shown) [Compound 15, 5,6-dihydroxy-4-oxo-2-phenyl-4H-chromen-7-yl 2-{[(tert-butoxy)carbonyl]amino}-4-methyl-pentanoate]
other
  melting point: 199.3 °C
Injured SH-SY5Y cells
  viability at 3.125 µM: 17.8%
  viability at 6.25 µM: 42.8%
  viability at 12.5 µM: 42.5%
  viability at 25 µM: 41.3%
  viability at 50 µM: 22.3%
  EC50: 23.9 µM
H9C2 cells [1]
  viability at 6.25 µM: 196%
  viability at 12.5 µM: 193%
  viability at 25 µM: 177%
  viability at 50 µM: 173%
  IC50: > 100 µM
H9C2 cells [2]
  viability at 100 µM: 159%
